# According to a melting point compilation (Tetko et al.; mined from patent text by program, amines drawn as free bases though some values may be those of a salt):
row,Structure (SMILES),melting point [°C]
1,O=C1C2CCCCC2C(=O)N1c1ccncc1 (stereo not given),165 to 168
2,Cc1cnc(COc2nn3c(-c4ccccc4)nnc3cc2-c2ccccc2)s1,182
3,Cc1oc(-c2ccccc2)nc1CCC(=O)c1ccc(CC2OC(=O)NC2=O)cc1 (stereo not given),198 to 200
4,COc1ccc(C(Cc2ccccc2)=NO)cc1,132 to 135
5,C=C(C)[C@@H]1CC(=O)[C@H](C)[C@H]1c1nc2c([nH]1)c(=O)n(CCC)c(=O)n2CCC,136 to 137
6,Cc1cc(NC(=O)C(C)(O)COc2ccc(CCCl)c(F)c2)ccc1[N+](=O)[O-] (stereo not given),77 to 79
7,OC1(c2ccc(F)cc2)CCC2CN(Cc3ccccc3)CCC2C1 (stereo not given),120 to 122
8,Cc1ccc(OCc2ccccc2)c(C(CCN2CC3(C)CC3(C)C2)c2ccccc2)c1 (stereo not given),93 to 95
9,CC(=O)SCC(Cc1ccccc1)C(=O)NN1CCCC1 (stereo not given),91
10,COc1nc(C)nc(NC(=O)NS(=O)(=O)c2ccccc2C(=O)OC(C)C)n1,193 to 196
11,O=C1c2ccccc2C(=O)N1c1ccc(S(=O)(=O)NCCC2(C(=O)NCC(F)(F)F)c3ccccc3-c3ccccc32)cc1,235 to 237
12,O=c1ccoc(C(O)c2ccccc2)c1OCc1ccccc1 (stereo not given),121 to 122
13,O=C(O)CCC(=O)c1ccc(CCNS(=O)(=O)c2ccc(Cl)cc2)cc1,152
14,O=C1CCC(N2C(=O)c3cccc(CNC(=O)c4cccc(C(F)(F)F)c4F)c3C2=O)C(=O)N1 (stereo not given),155 to 157
15,O=S1(=O)c2cccc3cccc(c23)N1CCCCl,78
16,CC(=O)C1=Cc2cc(Br)ccc2OC1,70
17,COc1ccc(C(C#Cc2ccccc2)CC(C)=O)cc1OC1CCCC1 (racemic),62 to 64
18,CC(C)(C)C(=O)c1ccc(CN2C(=O)c3ccccc3C2=O)cc1,138 to 140
19,OC1CCCN(CCCOc2ccc3cc(-c4n[nH]c5cc(-c6ccccc6)sc45)[nH]c3c2)C1 (stereo not given),213 to 216
20,C[C@](O)(COc1ccc(C#N)c(F)c1)C(=O)Nc1ccc(C#N)c(C(F)(F)F)c1,124 to 125
21,O=c1[nH]nc(-c2cccc(OCc3csc(-c4ccccc4F)n3)c2)o1,198 to 202
22,COc1ccc2c(c1)C(C(=O)N(Cc1ccc(Cl)cc1)c1ccc(C(C)C)cc1)CCC2 (stereo not given),87 to 88
23,O=C1N(CC2CCCO2)c2ccccc2C12COc1c[nH]c(=O)cc12 (stereo not given),> 250
24,CCCCCC(=O)c1c[nH]c2ccccc12,153 to 154

row,Structure (SMILES),melting point [°C]
1,Cc1c(Nc2ccc(Br)cc2C(=O)O)cccc1C(F)(F)F,223 to 225
2,Cc1cc(SC(C)c2cccc3cn(-c4ccc(C(F)(F)F)cc4)nc23)ccc1OCC(=O)O (stereo not given),62 to 64
3,CCCCC(=O)c1c(-c2ccc3cc(O)ccc3c2)oc2ccccc12,148 to 149
4,O=C(NCc1ccccc1)c1ccnc(N2CCN(Cc3ccc(F)cc3)C2=O)c1,99 to 101
5,C=CCc1cc(NC(C)=O)ccc1O,82 to 85
6,CC(C)(C)[Si](C)(C)Oc1ccc2c(c1)OC(O)c1c-2ccc2cc(O[Si](C)(C)C(C)(C)C)ccc12 (stereo not given),188 to 190
7,COc1cccc(CCc2c(CC#N)ccc(OC)c2OC)c1,98 to 100
8,N#CC(c1ccc(Cl)c(Cl)c1)c1c(Cl)cc([N+](=O)[O-])cc1Cl (stereo not given),171 to 172
9,Cc1cc2nc(Cl)c(Cl)nc2c([N+](=O)[O-])c1Cl,121 to 122
10,Cc1c(CCOCCO[N+](=O)[O-])cc(-c2ccc(S(C)(=O)=O)cc2)n1-c1ccccc1,78 to 80
11,CC(C)c1nn2ccccc2c1C(=O)C1CC1,72
12,COc1cc(F)c(C(O)CNCc2csc(NC(C)=O)n2)cc1OC (stereo not given),173 to 175
13,CN(C)C=NS(=O)(=O)c1nc2ccc(O)cc2s1,195 to 198
14,C/C(=C\c1ccc(NC(=O)c2cc([Si](C)(C)C)cc([Si](C)(C)C)c2)cc1F)C(=O)O,213 to 215
15,Cc1ccc(CC2CCN(C(=O)c3nc4ccc(O)cc4[nH]3)CC2)cc1,93
16,CC(CCNC(=O)c1ccc(OC(F)(F)F)cc1)CC(C)(C)CNC(=O)c1ccc(OC(F)(F)F)cc1 (stereo not given),97 to 99
17,CN1Cc2c(-c3noc(CCl)n3)ncn2-c2cccc(C(F)(F)F)c2C1=O,180 to 184
18,CC(C)Oc1ccccc1C=C(C=O)C(C=O)=Cc1ccccc1OC(C)C,109 to 110
19,O=C(O)C1=Cc2cc(Br)cc(Cl)c2OC1C(F)(F)F (stereo not given),221 to 222
20,CC(C)(CCCc1cccnc1)NC(=O)Cc1ccccc1[N+](=O)[O-],117 to 118
21,CCCCCCCOc1ccc(C(=O)Nc2ccccc2O)cc1,131 to 133
22,CCS(=O)(=O)Nc1ccc(CN(CC2(c3ccccn3)CCCCC2)C(=O)Nc2c(C(C)C)cccc2C(C)C)cc1,209
23,COC(=O)COc1ccc(OC/C=C(/c2ccc(I)cc2)c2ccc3oc(C)cc3c2)cc1C,121 to 128
24,OCC1OC(n2cnc3c(NC4CCCCC4O)ncnc32)C(O)C1O (stereo not given),210 to 211

row,Structure (SMILES),melting point [°C]
1,N#CC(=NNc1c(Cl)cc(C(F)(F)F)cc1Cl)c1ccc(Cl)cc1,164 to 165
2,COC(=O)C1CC2CCC1N(C(=O)OC(C)(C)C)C2 (stereo not given),44 to 45
3,CC(C)c1ccc2c(c1)C(=O)c1ccccc1C2=O,53 to 54
4,COCc1cccc2oc(C(=O)O)c(C)c12,164 to 166
5,O=C1OC(=O)C2CC3=C(CC3)CC12 (stereo not given),81 to 83
6,CC1(C)Oc2ccc(S(=O)(=O)C(F)(F)F)cc2[C@@H](n2ccccc2=O)[C@@H]1O (relative stereo),219 to 220
7,Cn1c(=O)[nH]c(=O)c2nc(-c3ccc(/C=C/C(=O)O)cc3)[nH]c21,300
8,O=S(c1[nH]c(Br)c(Br)c1-c1ccc(Cl)cc1)C(F)(F)F (stereo not given),166 to 168
9,CNC(=S)NN=C(CCCCl)c1cccnc1,100 to 102
10,CCCCNC(=O)NS(=O)(=O)c1ccn(C)n1,168 to 169
11,Cc1c2c(c(C)c3c1NCC3)OC(C)(CI)C2 (stereo not given),90 to 91
12,CN(C)/C=c1\c2ccccc2c2[nH]c(=O)c3nccn3c12,293
13,CC(NC(=S)NCc1ccc(C(C)(C)C)cc1)c1ccc(NS(C)(=O)=O)cc1 (stereo not given),101
14,O=C(O)c1ccccc1Sc1ccccc1C(=O)O,226 to 227
15,COc1ccc(S(=O)(=O)Nc2ccccc2NC(=O)c2ccncc2)cc1,162 to 163
16,CN(C)CC(=O)Nc1ccccc1N,119 to 121
17,NS(=O)(=O)c1ccc(-n2nc(C(F)(F)F)cc2-c2ccc(F)cc2)cc1,165 to 166
18,O=C1c2ccccc2C(=O)N1c1ccccc1CSc1nccn1Cc1ccccn1,80 to 83
19,O=C(Nc1ccc(Cl)cc1)c1c(O)c2cccnc2n(-c2ccccc2)c1=O,281 to 286
20,NC(Cc1noc2ccccc12)=NO,160 to 162
21,CN(C)CCOc1ccc(Cl)c(C(=O)NCC23CC4CC(CC(C4)C2)C3)c1,144 to 147
22,OCCN1CCC(Nc2nc3ccccc3n2Cc2ccc(F)cc2)CC1,139
